Tests used:
[1] = molecular target: T1, FoxO1 (Mus musculus, UniProt Q9R1E0); test: Transient FoxO1 inhibition in β-cell-ablated (and non-ablated control) adult Somatostatin-Cre; R26-YFP; RIP-DTR mice: δ-cell conversion into insulin+ cells
[2] = molecular target: T1, FoxO1; parameters: endogenous in cells; host or cells: Somatostatin-Cre; R26-YFP; RIP-DTR mice (pancreatic islets, δ-cells), in vivo; settings: oral administration, diabetic db/db mice; cited from earlier work
[3] = test system: α-cells; test: α-cell lineage tracing after β-cell ablation in Glucagon-rtTA; TetO-Cre; R26-YFP; RIP-DTR pups; assay type: in vivo, mice; settings: DT at 2 weeks of age
[4] = test system: β-cells; assay type: in vivo, mice; settings: 2 weeks following DT administration; ablation at 2 weeks of age
[5] = administered immediately after DT ablation, analysed 1mpa, adult mice

T1 sequence (Q9R1E0 whole entry): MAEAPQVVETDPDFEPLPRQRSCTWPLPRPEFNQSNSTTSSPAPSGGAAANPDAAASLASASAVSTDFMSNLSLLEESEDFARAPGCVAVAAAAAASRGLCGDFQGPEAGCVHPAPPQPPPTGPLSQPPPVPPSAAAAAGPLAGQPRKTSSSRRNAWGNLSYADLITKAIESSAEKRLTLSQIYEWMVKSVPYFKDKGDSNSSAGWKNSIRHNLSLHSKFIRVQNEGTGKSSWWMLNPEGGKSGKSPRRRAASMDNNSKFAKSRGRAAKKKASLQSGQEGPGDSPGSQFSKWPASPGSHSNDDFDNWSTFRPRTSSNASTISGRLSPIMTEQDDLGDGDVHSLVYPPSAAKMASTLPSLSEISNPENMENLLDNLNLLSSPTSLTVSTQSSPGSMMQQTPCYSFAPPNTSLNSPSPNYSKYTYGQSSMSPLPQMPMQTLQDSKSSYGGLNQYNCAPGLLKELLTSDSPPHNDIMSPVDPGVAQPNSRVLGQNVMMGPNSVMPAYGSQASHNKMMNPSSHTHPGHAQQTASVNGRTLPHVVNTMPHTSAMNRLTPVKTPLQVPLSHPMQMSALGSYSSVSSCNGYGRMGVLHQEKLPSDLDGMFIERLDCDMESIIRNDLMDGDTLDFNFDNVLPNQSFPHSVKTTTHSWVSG

Compound | insulin+ cells more abundant ([1]; AS1842856 given for 1 week immediately after DT ablation, analysed 1 month post ablation (1mpa), adult mice, 30 mg/kg i.p. daily) [fold] | fraction of YFP+ cells that expressed insulin only [1, 5] | insulin+ cells that were YFP+, i.e. dedifferentiated δ-cells [1, 5] [%] | δ-cell de-differentiation upon transient FoxO1 inhibition ([1]; adult mice, AS1842856 for 1 week) | effect on insulin expression induction ([1]; non-ablated control mice) | fasting plasma glucose level [2] | YFP+/insulin+ (% cells; 1.5 mpa) [3] [%] | β-cells lost [4] [%]
CCn1cc(C(=O)O)c(=O)c2c(N)c(F)c(NC3CCCCC3)cc21 [AS1842856, 5-amino-7-(cyclohexylamino)-1-ethyl-6-fluoro-4-oxo-1,4-dihydroquinoline-3-carboxylic acid] | 11 | one-fourth | 93 | de-differentiate | minimal effect | drastic decrease |  | 
Diphtheria toxin [DT] |  |  |  |  |  |  | 0.23 | 99
